# Test results reported in ChEMBL document CHEMBL1149427 (Bioorg Med Chem Lett, 2006).
# Experiments:
# [1] = target: Histamine H1 receptor (Cavia porcellus) (UniProt P31389); experiment: (§1) Agonist activity at histamine H1 receptor in guinea pig ileum; type: functional, tissue-based
# [2] = target: Histamine H1 receptor (Cavia porcellus) (UniProt P31389); experiment: Functional activity at the histamine H1 receptor in guinea pig ileum; type: tissue-based
# [3] = target: Histamine H1 receptor (Cavia porcellus) (UniProt P31389); experiment: Agonist activity at histamine H1 receptor in guinea pig ileum in presence of mepyramine; type: functional, tissue-based
# Histamine H1 receptor = Histamine H1 receptor (Cavia porcellus, UniProt P31389); experiment: as §1; type: functional, tissue-based
# Histamine H1 receptor, sequence (P31389 whole entry): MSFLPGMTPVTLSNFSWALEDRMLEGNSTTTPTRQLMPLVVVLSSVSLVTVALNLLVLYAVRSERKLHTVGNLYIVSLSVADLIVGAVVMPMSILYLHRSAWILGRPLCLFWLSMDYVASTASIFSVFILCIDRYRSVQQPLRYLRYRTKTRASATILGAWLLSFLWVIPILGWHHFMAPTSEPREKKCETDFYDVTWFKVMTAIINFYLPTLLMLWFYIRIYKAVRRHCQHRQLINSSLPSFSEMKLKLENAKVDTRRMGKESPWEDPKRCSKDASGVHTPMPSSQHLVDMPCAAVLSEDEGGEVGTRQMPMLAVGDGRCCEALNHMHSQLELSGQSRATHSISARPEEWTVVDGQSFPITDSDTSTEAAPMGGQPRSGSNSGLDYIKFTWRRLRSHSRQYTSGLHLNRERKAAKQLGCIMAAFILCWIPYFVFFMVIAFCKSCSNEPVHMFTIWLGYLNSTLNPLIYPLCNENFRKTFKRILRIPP
# Histamine H1 receptor (Cavia porcellus), sequence (P31389 whole entry): as above
Emax [1] [%],pD'2 [2],Emax [3] [%],EC50 (Histamine H1 receptor) [nM],Activity [1] [%],SMILES
0,5.05,–,–,–,COCCOCn1cc(CCN)nc1C(=O)CC(c1ccccc1)c1ccccc1
75,–,47,1660,12,NCCc1c[nH]c(C(=O)CC(c2ccccc2)c2ccccc2)n1
0,3.8,–,–,–,COC(=O)C(N)C(O)c1c[nH]c(C(=O)CC(c2ccccc2)c2ccccc2)n1 (racemic)
0,4.61,–,–,–,COC(=O)[C@@H](N)[C@H](O)c1c[nH]c(C(=O)CC(c2ccccc2)c2ccccc2)n1
0,4.08,–,–,–,N[C@H](CO)[C@H](O)c1c[nH]c(C(=O)CC(c2ccccc2)c2ccccc2)n1
–,–,–,–,100,NCCc1c[nH]cn1
